{"source": "paper PMC8924211", "about": "(Nature Communications, 2022)", "key": {"GAL2R mutants": {"biological_target": "T1, GAL2R mutants (Homo sapiens, UniProt O43603, V259A)", "T1 construct": "expressed in transfected cells; host or cells: HEK293", "T1 sequence (O43603 1-387 V259A)": "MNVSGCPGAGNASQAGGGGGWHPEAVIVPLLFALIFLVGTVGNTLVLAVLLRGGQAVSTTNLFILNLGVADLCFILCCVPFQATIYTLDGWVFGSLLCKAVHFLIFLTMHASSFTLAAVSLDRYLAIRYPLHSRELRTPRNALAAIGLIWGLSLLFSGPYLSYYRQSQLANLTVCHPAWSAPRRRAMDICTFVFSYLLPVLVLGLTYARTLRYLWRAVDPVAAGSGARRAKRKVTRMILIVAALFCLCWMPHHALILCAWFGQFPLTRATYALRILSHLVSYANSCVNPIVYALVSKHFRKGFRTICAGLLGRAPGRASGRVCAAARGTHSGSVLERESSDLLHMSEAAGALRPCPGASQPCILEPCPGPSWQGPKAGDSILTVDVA", "test": "Calcium assay, HEK293/Gα16 cells, GAL2R mutants", "type": "cell-based", "details": "GAL2R V2596.58A"}, "GAL2R over GAL1R": {"tested_on": "GAL2R over GAL1R", "details": "cross-reactivity to galanin receptors; cited from earlier work", "from_the_text": "In contrast, L^4P contacts with equivalent ECL2 residues with weaker hydrophobicity (L169^ECL2, A170^ECL2, and L172^ECL2) in GAL2R (Fig. 3e, Supplementary Fig. 4b). The structural observation is coincident with our peptide truncation assay."}, "GAL1R": {"biological_target": "GAL1R (Homo sapiens, UniProt P47211)", "sequence (P47211 whole entry)": "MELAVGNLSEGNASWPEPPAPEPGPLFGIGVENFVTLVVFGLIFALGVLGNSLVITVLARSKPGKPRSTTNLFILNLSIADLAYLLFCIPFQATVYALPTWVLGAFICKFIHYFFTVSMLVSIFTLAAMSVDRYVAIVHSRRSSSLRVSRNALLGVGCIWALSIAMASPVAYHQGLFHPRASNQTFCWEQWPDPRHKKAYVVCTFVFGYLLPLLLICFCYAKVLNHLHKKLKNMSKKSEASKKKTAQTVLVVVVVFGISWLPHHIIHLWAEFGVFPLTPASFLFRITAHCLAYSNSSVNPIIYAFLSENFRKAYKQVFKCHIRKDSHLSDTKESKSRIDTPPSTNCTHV", "test": "Calcium assay, HEK293/Gα16 cells, WT GAL1R", "type": "cell-based", "details": "HEK293/Gα16, calcium response (Supplementary Fig. 9a)"}, "GAL2R": {"biological_target": "T2, GAL2R (Homo sapiens, UniProt O43603)", "T2 construct": "expressed in transfected cells; host or cells: HEK293/Gα16", "T2 sequence (O43603 1-387)": "T1 sequence (O43603 1-387 V259A) with A259V", "test": "Calcium assay, HEK293/Gα16 cells, WT GAL2R", "type": "cell-based"}, "[1]": {"details": "response of 100 μM spexin compared to WT, mean ± S.E.M."}}, "note": "Substitutions are numbered along the chain they refer to."}
{"substance": "spexin", "values": [{"measurement": "Emax", "setting": "GAL2R mutants; [1]", "result": "68.4±5.7", "unit": "%"}, {"measurement": "EC50", "setting": "GAL2R mutants; spexin, replicate 1", "result": 1.328, "unit": "µM"}, {"measurement": "Emax", "setting": "GAL2R mutants; spexin, replicate 1", "result": 60.401, "unit": "%"}, {"measurement": "EC50", "setting": "GAL2R mutants; spexin, replicate 2", "result": 6.622, "unit": "µM"}, {"measurement": "Emax", "setting": "GAL2R mutants; spexin, replicate 2", "result": 65.4165, "unit": "%"}, {"measurement": "EC50", "setting": "GAL2R mutants; spexin, replicate 3", "result": 6.153, "unit": "µM"}, {"measurement": "Emax", "setting": "GAL2R mutants; spexin, replicate 3", "result": 79.3756, "unit": "%"}, {"measurement": "affinity for GALR2 versus GALR1", "setting": "GAL2R over GAL1R", "result": "high affinity for GALR2 but not GALR1"}, {"measurement": "activation of GAL1R", "setting": "GAL1R", "result": "did not activate"}, {"measurement": "Emax", "setting": "GAL2R; [1]", "result": "100±4.9", "unit": "%"}, {"measurement": "EC50", "setting": "GAL2R; spexin, replicate 1", "result": 0.3268, "unit": "µM"}, {"measurement": "Emax", "setting": "GAL2R; spexin, replicate 1", "result": 101.879, "unit": "%"}, {"measurement": "EC50", "setting": "GAL2R; spexin, replicate 2", "result": 0.1775, "unit": "µM"}, {"measurement": "Emax", "setting": "GAL2R; spexin, replicate 2", "result": 107.462, "unit": "%"}, {"measurement": "EC50", "setting": "GAL2R; spexin, replicate 3", "result": 0.08138, "unit": "µM"}, {"measurement": "Emax", "setting": "GAL2R; spexin, replicate 3", "result": 90.6585, "unit": "%"}]}
